The values that follow come from US20230414735A1, “NEOANTIGENS AND METHODS OF THEIR USE” (priority 2016, published 2023).

In assay [1] the target is T1, HLA class I molecule (Homo sapiens, UniProt P04439).
T1 construct: made in house; host or cells: EBV-transformed homozygous cell lines, fibroblasts, CIR or 721.22 transfectants; purified from detergent lysates on an anti-HLA antibody column
Description: HLA class I peptide binding affinity assay (inhibition of 125I-radiolabeled probe peptide binding to purified HLA). The conditions noted are these: Allele A03.01; read-out: Observed Affinity (IC50; (nM)). An outline of the steps:
(§1)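 Competition by test peptides for binding of an iodinated (chloramine-T) probe peptide to affinity-purified HLA class I from EBV-transformed lines or transfectants. Bound and free peptide separated by TSK gel filtration with radioactivity detection. IC50 approximates KD ([label]<[HLA], IC50≥[HLA]), also compiled as relative binding against positive controls.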

The subject of assay [2] is HLA-A02:01+ T cells (CD8+ T cells). Description: Immunogenicity assay: CD8+ T cell expansion with peptide-loaded monocyte-derived dendritic cells, multimer/tetramer staining. The conditions noted are these: HLA-A02:01^+ T cells co-cultured 10 days with peptide-loaded monocyte-derived dendritic cells; initial and validation multimer preparations; shown as examples of positive multimer staining (FIGS. 3-6). Format: cell-based, human.
Description: Immunogenicity assays are used to test the ability of each test peptide to expand T cells. Mature professional APCs are prepared for these assays in the following way. Monocytes are enriched from healthy human donor PBMCs using a bead-based kit (Miltenyi). Enriched cells are plated in GM-CSF and IL-4 to induce immature DCs. After 5 days, immature DCs are incubated at 37° C. with each peptide for 1 hour before addition of a cytokine maturation cocktail (GM-CSF, IL-1β, IL-4, IL-6, TNFα, PGE1β). Cells are incubated at 37° C. to mature DCs.
After maturation of DCs, PBMCs (either bulk or enriched for T cells) are added to mature dendritic cells with proliferation cytokines. Cultures are monitored for peptide-specific T cells using a combination of functional assays and/or tetramer staining Parallel immunogenicity assays with the modified and parent peptides allowed for comparisons of the relative efficiency with which the peptides expanded peptide-specific T cells.
Tetramer Staining. MHC tetramers are purchased or manufactured on-site, and are used to measure peptide-specific T cell expansion in the immunogenicity assays. For the assessment, tetramer is added to 1×10^5 cells in PBS containing 1% FCS and 0.1% sodium azide (FACS buffer) according to manufacturer's instructions. Cells are incubated in the dark for 20 minutes at room temperature. […] Cells are washed with cold FACS buffer and resuspended in buffer containing 1% formaldehyde. Cells are acquired on a FACS Calibur (Becton Dickinson) instrument, and are analyzed by use of Cellquest software (Becton Dickinson). For analysis of tetramer positive cells, the lymphocyte gate is taken from the forward and side-scatter plots. Data are reported as the percentage of cells that were CD8^+/Tetramer^+.
Immunogenicity assays were carried out to assess whether each peptide can elicit a T cell response by antigen-specific expansion. […] Each positive result was measured with a second multimer preparation to avoid any preparation biases.

Assay [3] has as its system HLA Class I molecules. The assay is described as follows: HLA class I binding stability assay (pMHC-I complex dissociation, 125I-labeled β2m, scintillation counts). The arrangement: species or system human.
The target of assay [4] is HLA class I molecule. Description: HLA class I peptide binding affinity assay (inhibition of 125I-radiolabeled probe peptide binding to purified HLA). The arrangement: species or system human. The conditions noted are these: read-out: Observed Affinity (IC50, (nM)). The method, boiled down: as §1
Assay [5] deals with ovarian carcinoma patients. The note with it: ovarian carcinoma patients immunized with poly-ICLC in combination with a NYESO-1 peptide vaccine (in addition to Montanide); phase 1 study; cited from earlier work.
The mark [6] stands for this setting: allele A02.01, pMHC-I dissociation at 37° C.

Read-outs that look alike come from different tables or passages of the source. Where a SMILES comes first, the peptide text is derived from it. Where no end group is shown, it is not given here.

T1 sequence (P04439 25-365): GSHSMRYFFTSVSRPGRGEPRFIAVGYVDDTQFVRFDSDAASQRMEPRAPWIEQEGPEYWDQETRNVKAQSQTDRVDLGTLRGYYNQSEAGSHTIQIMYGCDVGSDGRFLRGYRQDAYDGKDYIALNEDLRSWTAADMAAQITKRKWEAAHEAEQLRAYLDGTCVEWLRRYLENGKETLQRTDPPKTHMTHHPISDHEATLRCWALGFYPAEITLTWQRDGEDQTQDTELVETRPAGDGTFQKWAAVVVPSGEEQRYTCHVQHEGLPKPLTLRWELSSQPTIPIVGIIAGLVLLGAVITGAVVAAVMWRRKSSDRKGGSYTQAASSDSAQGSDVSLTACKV
T1 sequence (P61769 21-119 partner): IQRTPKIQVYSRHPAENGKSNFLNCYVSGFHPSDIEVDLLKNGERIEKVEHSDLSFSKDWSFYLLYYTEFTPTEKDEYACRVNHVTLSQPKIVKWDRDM

By IC50 is commonly meant the concentration that gives 50% inhibition. Turning to `CC[C@H](C)[C@H](NC(=O)[C@H](Cc1c[nH]c2ccccc12)NC(=O)[C@H](CS)NC(=O)[C@H](Cc1ccccc1)NC(=O)[C@@H](N)Cc1ccccc1)C(=O)N[C@@H](CC(C)C)C(=O)N[C@@H](CO)C(=O)N[C@@H](CS)C(=O)N[C@@H](CCCCN)C(=O)O` (H-FFCWILSCK-OH), in assay [1], the IC50 is 185 nM.

Turning to ALNSEALSV [HLA-A02:01], the “antigen-specific (multimer-double-positive) CD8^+ T cells, multimer staining” value (“antigen-specific” below) in assay [2] is reported as “antigen-specificity”.

In the case of LLCVWVSSI [HLA-A02:01], the “antigen-specific” value in assay [2] was “antigen-specificity”.

In the case of SMLTDSLFL, the “Stability (T1/2 (h))” value in assay [3] (allele A02.01, 37° C.) was determined as 9.8 h. Also, in assay [4] (allele A02.01), the IC50 was determined as 31 nM.

SMLTGPPARV [HLA-A02:01]: the “antigen-specific” value in assay [2] is listed as “antigen-specificity”.

Consider VLHECNSLYI, for which the “Stability (T1/2 (h))” value in assay [3] (allele A02.01, 37° C.) is listed as 5.1 h. The IC50 in assay [4] (allele A02.01) turned out to be 10 nM.

As to VLHESNSPYI, the “Stability (T1/2 (h))” value in assay [3] (allele A02.01, 37° C.) came out at 1.9 h. Further, the IC50 in assay [4] (allele A02.01) is 131 nM.

Turning to VLLSVHLIV, in assay [3] (setting [6]), the “Stability (T1/2 (h))” value came to 11 h. The IC50 in assay [4] (allele A02.01) was 72 nM.

On to VLTVTSTDV, for which, in assay [3] (allele A02.01, 37° C.), the “Stability (T1/2 (h))” value is given as 1.1 h. For the same compound, the concentration for half-maximal inhibition (IC50) in assay [4] (allele A02.01) worked out at 295 nM.

As for VMAGLGSPYV, the “Stability (T1/2 (h))” value in assay [3] (allele A02.01, 37° C.) is given as 2.9 h. For the same compound, in assay [4] (allele A02.01), the IC50 came to 102 nM.

VMAYVMAGV: the “Stability (T1/2 (h))” value in assay [3] (allele A02.01, 37° C.) turned out to be 16.5 h. For the same compound, the IC50 in assay [4] (allele A02.01) came out at 2 nM.

Turning to WLHKRGKYI, the “Stability (T1/2 (h))” value in assay [3] (setting [6]) worked out at 1.2 h; in assay [3] (allele B08.01, pMHC-I dissociation at 37° C.), 1.3 h. In addition, the results for the IC50 in assay [4] (allele A02.01) and in assay [4] (allele B08.01) were 1250 nM and 417 nM, respectively.

In the case of WMTETLFDI, in assay [3] (allele A02.01, 37° C.), the “Stability (T1/2 (h))” value worked out at 4 h. Also, the IC50 in assay [4] (allele A02.01) was found to be 14 nM.

As for WMTETLFDIV, in assay [3] (allele A02.01, 37° C.), the “Stability (T1/2 (h))” value is recorded as 0.4 h. Also, the IC50 in assay [4] (allele A01.01) turned out to be 14400 nM; in assay [4] (allele A02.01), 40 nM.

Regarding YLGNHMNIA, in assay [3] (allele A02.01, 37° C.), the “Stability (T1/2 (h))” value came out at 0.6 h. In addition, the IC50 is 117 nM in assay [4] (allele A02.01) and 872 nM in assay [4] (allele B08.01).

Turning to YLVIQLQDKF, the “Stability (T1/2 (h))” value in assay [3] (allele A24.02, pMHC-I dissociation at 37° C.) was 2.6 h. In addition, the IC50 in assay [4] (allele A02.01) was 2060 nM; in assay [4] (allele A24.02), 2150 nM.

As to YQQQQQSDL, in assay [3] (allele A02.01, 37° C.), the “Stability (T1/2 (h))” value is reported as 0.4 h. The values for the IC50 in assay [4] (allele A02.01) and in assay [4] (allele B08.01) were 799 nM and 18900 nM, respectively.

As for poly-ICLC, the “patients showing induction of CD4+ and CD8+ T cell, as well as antibody responses to the peptide” value in assay [5] was over 90%.
